Values joined by “and” are separate entries in the source; they are usually repeats but may differ in a detail not shown here. Equal entries are not always repeated.
The molecules below were run against RNA-directed RNA polymerase (Hepacivirus hominis, UniProt O39930) (assay: Inhibitory concentration against Hepatitis C virus RNA dependent RNA polymerase Nonstructural protein 5B).
Chain of RNA-directed RNA polymerase (O39930 whole entry): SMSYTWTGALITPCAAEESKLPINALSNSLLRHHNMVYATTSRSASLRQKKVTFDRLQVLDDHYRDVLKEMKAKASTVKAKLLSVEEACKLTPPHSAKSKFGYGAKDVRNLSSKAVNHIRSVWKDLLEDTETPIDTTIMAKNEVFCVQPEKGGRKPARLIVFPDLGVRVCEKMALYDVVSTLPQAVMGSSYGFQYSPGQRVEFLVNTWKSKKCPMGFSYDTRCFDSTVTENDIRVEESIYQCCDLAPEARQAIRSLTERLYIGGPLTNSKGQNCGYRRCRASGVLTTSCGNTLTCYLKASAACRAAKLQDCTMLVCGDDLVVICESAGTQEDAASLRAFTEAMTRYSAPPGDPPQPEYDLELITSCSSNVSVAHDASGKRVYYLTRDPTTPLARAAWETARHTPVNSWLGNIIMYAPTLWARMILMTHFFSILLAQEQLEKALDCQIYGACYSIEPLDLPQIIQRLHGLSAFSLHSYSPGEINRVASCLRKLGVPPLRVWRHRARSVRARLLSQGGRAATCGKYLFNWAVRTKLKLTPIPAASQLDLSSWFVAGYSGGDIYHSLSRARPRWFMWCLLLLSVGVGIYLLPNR
Molecule `CC(C)C[C@@]1(C(=O)O)C[C@H](C(=O)O)[C@H](c2cccs2)N1C(=O)c1ccccc1C(F)(F)F` has an IC50 of over 20000 nM. For `CC(C)C[C@@]1(C(=O)O)C[C@H](C(=O)O)[C@H](c2cccs2)N1C(=O)c1ccc([N+](=O)[O-])cc1`, the IC50 was 3200 nM. For `CC(C)C[C@@]1(C(=O)O)C[C@H](C(=O)O)[C@H](c2cccs2)N1C(=O)c1ccc(Cl)c(Cl)c1`, the IC50 was 600 nM. With `CC(C)C[C@@]1(C(=O)O)C[C@H](C(=O)O)[C@H](c2ccco2)N1C(=O)c1ccc(C(F)(F)F)cc1` the IC50 was 800 nM. `CC(C)C[C@@]1(C(=O)O)C[C@H](C(=O)O)[C@H](c2cccs2)N1C(=O)c1cccc(C(F)(F)F)c1` gave an IC50 of 600 nM. Molecule `CC(C)C[C@@]1(C(=O)O)C[C@H](C(=O)O)[C@H](c2ccccc2)N1C(=O)c1ccc(C(F)(F)F)cc1` has an IC50 of 700 nM. `O=C(O)CC[C@@]1(C(=O)O)C[C@H](C(=O)O)[C@H](c2ccccc2)N1C(=O)c1ccc(C(F)(F)F)cc1` was tested, and the IC50 was over 20000 nM. `CC(C)C[C@@]1(C(=O)O)C[C@H](C(=O)O)[C@H](c2cccs2)N1C(=O)c1cccc2ccccc12` was tested, and the IC50 was 700 nM. For `CC(C)C[C@@]1(C(=O)O)C[C@H](C(=O)O)[C@H](c2cccs2)N1C(=O)c1ccc(C(F)(F)F)cc1`, the IC50 was 300 nM and 190 nM. Work on `CC(C)C[C@@]1(C(=O)O)C[C@H](C(=O)O)[C@H](c2cccs2)N1C(=O)c1ccncc1` yielded an IC50 of over 20000 nM. `Cc1ccc([C@H]2[C@@H](C(=O)O)C[C@@](CC(C)C)(C(=O)O)N2C(=O)c2ccc(C(F)(F)F)cc2)cc1` was tested, and the IC50 was 1000 nM. With `CCCCCCC(=O)N1[C@@H](c2cccs2)[C@@H](C(=O)O)C[C@@]1(CC(C)C)C(=O)O` the IC50 was over 20000 nM. With `CC(C)C[C@@]1(C(=O)O)C[C@H](C(=O)O)[C@H](c2nccs2)N1C(=O)c1ccc(C(F)(F)F)cc1` the IC50 was 400 nM. With `CC(C)C[C@@]1(C(=O)O)C[C@H](C(=O)O)[C@H](C(C)C)N1C(=O)c1ccc(C(F)(F)F)cc1` the IC50 was 500 nM. `CC(C)C[C@@]1(C(=O)O)C[C@H](C(=O)O)[C@H](c2ccccn2)N1C(=O)c1ccc(C(F)(F)F)cc1` showed an IC50 of 700 nM. Molecule `O=C(O)[C@H]1C[C@@](Cc2ccccc2)(C(=O)O)N(C(=O)c2ccc(C(F)(F)F)cc2)[C@H]1c1ccccc1` has an IC50 of 1900 nM. With `COc1ccccc1[C@H]1[C@@H](C(=O)O)C[C@@](CC(C)C)(C(=O)O)N1C(=O)c1ccc(C(F)(F)F)cc1` the IC50 was 5100 nM. Work on `CC(C)C[C@@]1(C(=O)O)C[C@H](C(=O)O)[C@H](c2cccs2)N1C(=O)c1ccccc1` yielded an IC50 of 11400 nM. For `CC(C)C[C@@]1(C(=O)O)C[C@H](C(=O)O)[C@H](c2cccs2)N1C(=O)c1ccc(Cl)cc1`, the IC50 was 1700 nM. For `C[C@@]1(C(=O)O)C[C@H](C(=O)O)[C@H](c2ccccc2)N1C(=O)c1ccc(C(F)(F)F)cc1`, the IC50 was over 20000 nM. For `NCCC[C@@]1(C(=O)O)C[C@H](C(=O)O)[C@H](c2ccccc2)N1C(=O)c1ccc(C(F)(F)F)cc1`, the IC50 was over 20000 nM. For `O=C(O)[C@H]1C[C@@](Cc2ccc(O)cc2)(C(=O)O)N(C(=O)c2ccc(C(F)(F)F)cc2)[C@H]1c1ccccc1`, the IC50 was over 20000 nM. Work on `CC(C)C[C@@]1(C(=O)O)C[C@H](C(=O)O)[C@H](c2ccc(Cl)cc2)N1C(=O)c1ccc(C(F)(F)F)cc1` yielded an IC50 of 900 nM. With `CCCC[C@@]1(C(=O)O)C[C@H](C(=O)O)[C@H](c2ccccc2)N1C(=O)c1ccc(C(F)(F)F)cc1` the IC50 was 3300 nM. `O=C(O)[C@H]1C[C@@H](C(=O)O)N(C(=O)c2ccc(Cl)c(Cl)c2)C1` (racemic) was tested, and the IC50 was 12000 nM. With `O=C(O)[C@H]1C[C@@H](C(=O)O)N(C(=O)c2ccc(C(F)(F)F)cc2)C1` (racemic) the IC50 was 7600 nM. Molecule `CC(C)C[C@@]1(C(=O)O)C[C@H](C(=O)O)C(c2cccs2)N1C(=O)c1ccc(C(F)(F)F)cc1` (single isomer, unassigned) has an IC50 of 18000 nM.

Source: ChEMBL document CHEMBL1142030, “Identification of small molecule inhibitors of the hepatitis C virus RNA-dependent RNA polymerase from a pyrrolidine combinatorial mixture” (Bioorg Med Chem Lett, 2005)
